{"source": "patent US20100221361A1", "about": "“STABLE OXIDIZING BROMINE COMPOSITION, METHOD OF MANUFACTURE AND USE THEREOF FOR BIOFOULING CONTROL” (priority 2009, published 2010)", "origin": "cited, not measured here", "details": "in water"}
{"smiles": "BrBr", "note": "[elemental liquid bromine, bromine]", "values": [{"measurement": "solubility", "result": "< 4", "unit": "g/ 100 g water"}]}
